The values that follow come from patent publication US20230218577A1, “USE OF HEAT SHOCK PROTEIN INHIBITORS FOR THE TREATMENT OF NEURODEVELOPMENTAL DISORDERS” (The Children's Medical Center Corporation, priority 2020, published 2023).

Experiment [1] concerns Hsp90 (panel of human cancer cell lines). As to conditions: read-out: mean IC50 against Hsp90, Kelland et al. 1999; cited from earlier work.
Experiment [2] deals with pS6, IGF-IRβ in ctrl-sh neurons. Briefly: Western blot of pS6 and IGF-IRβ in ctrl-sh neurons. It counts as cell-based, rat. As to conditions: dose curve. (In general: In western blotting, separated proteins are transferred to a membrane and probed.)
Experiment [3] concerns ciliated neurons in CA1 of the hippocampus of Tsc2 mutant mice. Nature of the experiment: Ciliated neurons in brain of Tsc2 mutant mice (immunohistochemistry, manual cilia counting). It counts as in vivo, mouse. The conditions noted are these: rapamycin 3 mg/kg i.p. every other day P7 until P56. The text has this:
(§1) Neuronal cilia in TSC mouse models was examined with either a conditional deletion of TSC1 or TSC2 driven by the Synapsin-1 promoter, which results in loss of TSC1/2 proteins in post-mitotic neurons of the cortex and of the hippocampus. The TSC1/SynCre mice (Tsc1 mutant) have a shorter life span (median age postnatal day 35, P35), and they recapitulate many of the neurological manifestations of TSC, including seizures and presence of ectopic giant cells (Meikle et al., A mouse model of tuberous sclerosis: neuronal loss of Tsc1 causes dysplastic and ectopic neurons, reduced myelination, seizure activity, and limited survival; J Neurosci 27, 5546-5558 (2007)). […]
For histological analysis, animals were anesthetized (1 ml of 2.5% Avertin) and perfused transcardially with 4% PFA. […] Finally, the average percentage of neurons with cilia (NeuN^+/ACIII^+) was calculated in each of the images. […] The average percentage of SMI311^+ or SMI311^− with cilia was calculated. […] A threshold for cilia count was set such that only ACIII positive objects that measured longer than 1 μm were counted as cilia. All the imaging and the quantification were done in a blinded way. […] All quantifications were performed in a blinded fashion.

The subject of experiment [4] is ciliated neurons in cortex and dentate gyrus of Tsc1 mutant mice. Briefly: Ciliated neurons in brain of Tsc1 mutant mice (immunohistochemistry, manual cilia counting). It counts as in vivo, mouse. As to conditions: rapamycin 6 mg/kg i.p. every other day P7 until P21.
Text: as §1
For histological analysis, animals were anesthetized (1 ml of 2.5% Avertin) and perfused transcardially with 4% PFA. […] Finally, the average percentage of neurons with cilia (NeuN^+/ACIII^+) was calculated in each of the images. […] The average percentage of SMI311^+ or SMI311^− with cilia was calculated. […] A threshold for cilia count was set such that only ACIII positive objects that measured longer than 1 μm were counted as cilia. All the imaging and the quantification were done in a blinded way. […]

pIC50: −log10 of the molar value.

The pIC50 is the IC50 on a negative log10 scale, so that one unit is a factor of ten. As for `C=CCNC1=C2C[C@@H](C)C[C@H](OC)[C@H](O)[C@@H](C)/C=C(\C)[C@H](OC(N)=O)[C@@H](OC)C=C/C=C(\C)C(=O)NC(=CC1=O)C2=O` [17-AGG, 3 S,5S,6R,7S,8E,10R,11S,12E,14E)-21-(allylamino)-6-hydroxy-5,11-dimethoxy-3,7,9,15-tetramethyl-16,20,22-trioxo-17-azabicyclo[16.3.1]docosa-8,12,14,18,21-pentaen-10-yl] carbamate], in experiment [1], the negative logarithm of the IC50 (pIC50) was […]. Also, in experiment [2], the IGF-IRβ levels entry was “reduced” and the S6 phosphorylation entry is reported as “reduced”.
In the case of `CO[C@H]1C[C@@H]2CC[C@@H](C)[C@@](O)(O2)C(=O)C(=O)N2CCCC[C@H]2C(=O)O[C@H]([C@H](C)C[C@@H]2CC[C@@H](O)[C@H](OC)C2)CC(=O)[C@H](C)/C=C(\C)[C@@H](O)[C@@H](OC)C(=O)[C@H](C)C[C@H](C)/C=C/C=C/C=C/1C` [rapamycin], the ciliation defects result in experiment [3] and in experiment [4] was “prevented” in each case.
